Assay [1] concerns Nicotiana benthamiana leaves. Put plainly: Transient expression of Brachypodium DHS in Nicotiana benthamiana leaves (AtRbcS3B promoter), UHPLC-MS. The class given is in vivo. Particulars: three days after transient expression. The procedure: Agrobacterium tumefaciens strain GV3101 transformed with the plant expression constructs were grown at 28° C. for 24 to 36 hours in 10 mL of LB liquid media containing the corresponding antibiotics. The saturated cultures were spun down at 3,000 g for 5 minutes at room temperature and washed twice with 3 mL of induction media (IM; 10 mM MES [2-(N-morpholino) ethanesulfonic acid] buffer pH 5.6, 0.5% glucose, 2 mM NaH2PO4, 20 mM NH4Cl, 1 mM MgSO4, 2 mM KCl, 0.1 mM CaCl2), 0.01 mM FeSO4, and 0.2 mM acetosyringone). After washing, bacteria cultures were incubated in IM for 2 to 3 hours at room temperature in the dark, pelleted at 3000 g for 5 minutes, and resuspended into 3 mL of 10 mM MES buffer pH 5.6 with 0.2 mM acetosyringone. OD600nm was adjusted to a final density of 0.25 units for pAGM4673::TyrA (FIG. 3F) and pICH47822::DHS (FIG. 5A) infiltration, or 0.5 units for pAGM4673::TyrA-DHS co-expression constructs (FIG. 5B) using 10 mM MES buffer pH 5.6 with 0.2 mM acetosyringone. For infiltration of pICH47822::DHS constructs, the Agrobacterium suspensions were adjusted to OD600nm=0.5 and mixed with an equal volume of a suspension of an Agrobacterium clone transformed with pICH4780::p19 under control of the Arabidopsis ubiquitin ligase promoter adjusted to OD600nm=0.5, resulting in a final mixture of 0.25 OD600nm units for each construct. […] Nicotiana benthamiana plants of around 4-weeks-old were infiltrated close to the end of the light period into four different spots per plant, distributed into two leaves at two infiltrations per leaf, with each individual spot corresponding with a different construct/treatment. In total, each construct was infiltrated as 5 or 6 independent replicates into different plants following a randomized pattern. Samples consisting of the infiltrated leaf limbs, without the main veins, were harvested at ˜72 hours post infiltration and subjected to HPLC or UHPLC-MS analysis (see details below).
Around 30-40 mg of pulverized frozen plant tissue were resuspended into 400 μL of chloroform:methanol (1:2) for ˜1 hour with regular vortexing, followed by centrifugation at 20,000 g for 5 minutes at room temperature. The whole supernatant was transferred to a fresh tube, mixed with 125 μL of chloroform, 300 μL of water, and spun down at 15,000 g for 5 minutes for phase separation. The upper, aqueous phase was recovered and dried down for 4 hours to overnight in a speed-vac at 40° C. The dried pellets were resuspended into 100 μL of methanol 80%, spun down at 20,000 g for 5 minutes, and the supernatant transferred to vials for injection. All reagents used for the extraction were UHPLC-MS grade.
Aromatic amino acids and shikimate were detected using a Vanquish Horizon Binary UHPLC (Thermo Scientific) coupled to a Q Exactive mass spectrometer (Thermo Scientific). Two microliters of the sample were analyzed using a InfinityLab Poroshell 120 HILIC-Z column (150×2.1 mm, 2.7-μm particle size; Agilent) in a gradient of 5 mM ammonium acetate/0.2% acetic acid buffer in water (solvent A) and 5 mM ammonium acetate/0.2% acetic acid buffer in 95% acetonitrile (solvent B) at a flow rate of 0.45 mL/min and column temperature of 40° C. The phase B gradient was: 0-2 min, 94%; 2-9 min, 94-88%; 9-19 min, 88-71%; 19-20 min, 71-20%, 20-21.5 min, 20%; 21.5-22 min, 20-94%; 22-25 min, 94%. All chemicals used to prepare the mobile phases were LC-MS grade. Full MS spectra were recorded between 2 and 19 minutes using full scan in negative mode, under the following parameters: sheath gas flow rate, 55; auxiliary gas flow rate, 20; sweep gas flow rate, 2; spray voltage, 3 kV; capillary temperature, 400° C.; S-lens RF level, 50; resolution, 70,000; AGC target 3×10^6, maximum scan time 100 ms; scan range 70-1050 m/z. Spectral data were integrated manually using Xcalibur 3.0. For ^13C labeled plant samples, ^13C-isotopologues were detected based on a mass increase of 1.00335 atomic mass units for each ^13C atom. […]

A short description of assay [2]: DHS activity with combinations of effectors. Format: biochemical. The conditions noted are these: 0.15 mM each effector (FIG. 19). The procedure:
DHS effector molecules can have synergistic effects when combined in vitro^51. To explore this possibility, we tested the impact of different combinations of tryptophan, tyrosine, arogenate and chorismate, at 0.15 mM each, on the activity of Brachypodium DHS enzymes.

The test system of the next assay is grass DHS enzymes. Put plainly: DHS activity: effector inhibition. Format: biochemical. Particulars: 0.5 mM (FIGS. 4, 15, 17). The procedure:
(§1) As recent studies have shown that plant DHS enzymes are feedback-inhibited by multiple effector molecules^15, 16, we tested the effect of AAAs and another 14 related metabolites, including various intermediates of the shikimate pathway and the pathways downstream of AAAs, on Brachypodium DHS enzymes.
(§2) The DHS assay for UHPLC-MS quantification was set up using the same settings as described in the previous paragraph for the UV-based DHS assay, which guaranteed at least 10 minutes of reaction linearity. After a 10-minute incubation, 20 μL of the reactions (out of a total volume of 50 μL) were mixed into 80 μL of methanol, vortexed and transferred to vials for injection. Analysis of DAHP by UHPLC-MS was conducted using the same chromatographic settings as described for the UHPLC-MS analysis of soluble metabolites and compared with an authentic DAHP standard (Sta. Cruz biotechnology, cat. no. sc-216432).

Assay [3] relates to recombinant Sorghum DHS enzymes. The experiment in a line: DHS activity: effector inhibition. Format: biochemical, Sorghum bicolor. Particulars: 0.5 mM (FIG. 17). The procedure: (§3) In contrast, BdDHS1b was not inhibited by arogenate even up to 2.5 mM. In fact, DHS1b activity increased in the presence of high concentrations of arogenate (FIG. 4F), likely due to high concentrations of contaminant NaCl present in the arogenate preparation (FIG. 16). Under acidic conditions, arogenate is known to undergo a spontaneous dehydration and decarboxylation into […]. […] Like in Brachypodium DHS enzymes, 0.5 mM arogenate inhibited SbDHS1a and SbDHS2 at ˜50% and ˜40%, respectively, but had no effect on SbDHS1b.

Assay [4] has as its target Brachypodium distachyon BdDHS2, SEQ ID NO: 5, recombinant (Brachypodium distachyon, UniProt I1I809). The experiment in a line: DHS activity: kinetics and effector inhibition. The class given is biochemical.
Description: (§4) To examine their functional properties, the recombinant DHS enzymes of Brachypodium were produced and characterized in vitro.
as §1, §2

Assay [5] deals with Brachypodium distachyon BdDHS1b, SEQ ID NO: 3, recombinant (Brachypodium distachyon, UniProt I1H4W3). Put plainly: DHS activity: kinetics and effector inhibition. Format: biochemical.
Sequence of Brachypodium distachyon BdDHS1b, SEQ ID NO: 3, recombinant (I1H4W3 37-542): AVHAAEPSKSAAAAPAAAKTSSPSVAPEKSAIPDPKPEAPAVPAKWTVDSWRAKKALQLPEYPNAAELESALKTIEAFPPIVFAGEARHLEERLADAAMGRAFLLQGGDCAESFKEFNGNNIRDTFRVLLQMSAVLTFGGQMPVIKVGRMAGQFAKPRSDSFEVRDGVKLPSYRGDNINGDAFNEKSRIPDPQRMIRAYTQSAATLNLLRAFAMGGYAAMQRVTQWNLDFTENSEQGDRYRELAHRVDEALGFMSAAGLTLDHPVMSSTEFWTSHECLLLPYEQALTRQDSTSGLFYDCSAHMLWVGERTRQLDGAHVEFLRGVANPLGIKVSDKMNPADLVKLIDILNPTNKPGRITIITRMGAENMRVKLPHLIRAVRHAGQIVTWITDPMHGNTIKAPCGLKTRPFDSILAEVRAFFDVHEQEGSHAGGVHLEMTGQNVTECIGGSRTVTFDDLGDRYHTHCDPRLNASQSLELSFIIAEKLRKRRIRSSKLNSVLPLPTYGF
Description: as §4, §1, §2

Assay [6] concerns the target Brachypodium distachyon BdDHS1a, SEQ ID NO: 1, recombinant (Brachypodium distachyon, UniProt I1GSB3). Put plainly: DHS activity: kinetics and effector inhibition.
Description: as §4, §1, §2

The subject of assay [7] is Nicotiana benthamiana leaves. Put plainly: Transient expression of DHS1b orthologs in Nicotiana benthamiana leaves, LCMS (FIG. 21). Format: in vivo. The conditions noted are these: 72 hours post-infiltration; for effect on levels of aromatic amino acids and their precursor molecules: vs YPet. The source says: To determine whether the grass DHS1b gene encodes a deregulated DHS in other grass species besides Brachypodium distachyon, BdDHS1b orthologs from Oryza sativa (OsDHS1b) and Sorghum bicolor (SbDHS1b) were cloned into the Golden Gate plant expression vector pICH47822 under control of the RuBisCO small subunit 3B promoter from Arabidopsis thaliana.^52 A 3× human influenza hemagglutinin tag was fused in frame to the C-terminus of the DHS genes to confirm the production of heterologous DHS protein.
Agrobacterium tumefaciens (strain GV3101) clones transformed with the OsDHS1b and SbDHS1b plant expression constructs were infiltrated into the leaves of Nicotiana benthamiana side-by-side with Agrobacterium clones expressing BdDHS1a, BdDHS1b, and the fluorescent protein YPet (negative control). The levels of phenylalanine, tyrosine, tryptophan, and three of their biosynthetic intermediates (shikimate, prephenate, and arogenate) were determined at 72 hours post-infiltration by liquid chromatography coupled to mass spectrometry (LCMS). […] On average, expression of BdDHS1b or OsDHS1b increased phenylalanine, tyrosine, and shikimate levels by 5 to 20-times compared to the YPet negative control (FIG. 21), whereas prephenate and arogenate rose to ˜100-times the control (FIG. 21). […] Based on these findings, BdDHS1b and OsDHS1b, but not SbDHS1b, encode DHS enzymes that can boost the accumulation of aromatic amino acids in planta upon heterologous expression.

Assay [8] is described as follows: DHS inhibition by arogenate. The conditions noted are these: FIG. 18. The class given is biochemical. The procedure:
as §2

Assay [9] can be described thus: DHS inhibition by tryptophan. Format: biochemical. Particulars: FIG. 18. The procedure:
as §2

In assay [10] the target is T1, Sorghum bicolor SbDHS2, SEQ ID NO: 13, recombinant (Sorghum bicolor, UniProt C5YJQ4).
T1 construct: pET28a (NdeI/BamHI), E. coli KRX
T1 sequence (C5YJQ4 42-508): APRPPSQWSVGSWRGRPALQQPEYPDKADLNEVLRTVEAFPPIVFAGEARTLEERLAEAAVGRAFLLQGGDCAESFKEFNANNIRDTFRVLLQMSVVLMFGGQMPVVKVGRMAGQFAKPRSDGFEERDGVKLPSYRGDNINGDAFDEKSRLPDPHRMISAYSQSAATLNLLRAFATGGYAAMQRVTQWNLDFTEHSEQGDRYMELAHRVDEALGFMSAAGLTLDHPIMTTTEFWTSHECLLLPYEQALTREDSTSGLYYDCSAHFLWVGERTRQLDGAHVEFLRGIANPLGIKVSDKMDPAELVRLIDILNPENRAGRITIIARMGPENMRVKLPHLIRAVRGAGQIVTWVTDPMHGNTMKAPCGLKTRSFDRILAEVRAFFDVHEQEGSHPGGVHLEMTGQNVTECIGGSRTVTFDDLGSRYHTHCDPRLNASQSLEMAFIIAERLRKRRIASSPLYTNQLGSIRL
The experiment in a line: DHS activity: effector inhibition. Format: biochemical. The conditions noted are these: effector 0.5 mM. The procedure: as §3

The target in assay [11] is T2, Sorghum bicolor SbDHSnc, SEQ ID NO: 15, recombinant (Sorghum bicolor, UniProt C5WRG8).
T2 construct: synthesized into pET28a, E. coli KRX
T2 sequence (C5WRG8 36-499): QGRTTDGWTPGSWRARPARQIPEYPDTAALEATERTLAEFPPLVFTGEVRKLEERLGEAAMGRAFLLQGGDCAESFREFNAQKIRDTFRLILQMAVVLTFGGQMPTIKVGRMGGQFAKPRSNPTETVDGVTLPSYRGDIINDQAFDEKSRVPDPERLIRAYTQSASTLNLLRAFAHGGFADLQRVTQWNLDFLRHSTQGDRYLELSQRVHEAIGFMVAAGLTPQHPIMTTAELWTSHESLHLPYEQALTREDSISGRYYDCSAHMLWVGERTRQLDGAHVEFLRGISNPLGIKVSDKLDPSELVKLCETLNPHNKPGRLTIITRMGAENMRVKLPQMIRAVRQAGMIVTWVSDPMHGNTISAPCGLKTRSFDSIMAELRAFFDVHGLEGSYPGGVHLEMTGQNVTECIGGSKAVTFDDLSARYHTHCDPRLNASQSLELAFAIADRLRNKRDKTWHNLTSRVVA
Put plainly: DHS activity: effector inhibition. The class given is biochemical. Particulars: effector 0.5 mM. The procedure:
as §3

For orientation: inhibition means the share of the control response that was lost under treatment. For orientation: IC50 means the concentration at which inhibition is half-maximal.

Sequence of Brachypodium distachyon BdDHS2, SEQ ID NO: 5, recombinant (I1I809 31-503): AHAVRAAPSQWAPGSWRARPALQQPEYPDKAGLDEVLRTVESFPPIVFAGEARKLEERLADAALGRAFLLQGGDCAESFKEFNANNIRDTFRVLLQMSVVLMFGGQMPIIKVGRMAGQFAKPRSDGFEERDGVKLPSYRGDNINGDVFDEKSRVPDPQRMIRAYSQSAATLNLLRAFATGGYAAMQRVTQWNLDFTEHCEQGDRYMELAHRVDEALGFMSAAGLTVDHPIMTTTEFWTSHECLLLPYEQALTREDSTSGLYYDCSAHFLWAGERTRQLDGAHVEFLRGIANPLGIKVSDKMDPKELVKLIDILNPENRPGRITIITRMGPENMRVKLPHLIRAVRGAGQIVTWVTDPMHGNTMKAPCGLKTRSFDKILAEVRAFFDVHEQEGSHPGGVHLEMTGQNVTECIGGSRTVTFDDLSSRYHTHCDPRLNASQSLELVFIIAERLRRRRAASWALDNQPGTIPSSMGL
Sequence of Brachypodium distachyon BdDHS1a, SEQ ID NO: 1, recombinant (I1GSB3 46-537): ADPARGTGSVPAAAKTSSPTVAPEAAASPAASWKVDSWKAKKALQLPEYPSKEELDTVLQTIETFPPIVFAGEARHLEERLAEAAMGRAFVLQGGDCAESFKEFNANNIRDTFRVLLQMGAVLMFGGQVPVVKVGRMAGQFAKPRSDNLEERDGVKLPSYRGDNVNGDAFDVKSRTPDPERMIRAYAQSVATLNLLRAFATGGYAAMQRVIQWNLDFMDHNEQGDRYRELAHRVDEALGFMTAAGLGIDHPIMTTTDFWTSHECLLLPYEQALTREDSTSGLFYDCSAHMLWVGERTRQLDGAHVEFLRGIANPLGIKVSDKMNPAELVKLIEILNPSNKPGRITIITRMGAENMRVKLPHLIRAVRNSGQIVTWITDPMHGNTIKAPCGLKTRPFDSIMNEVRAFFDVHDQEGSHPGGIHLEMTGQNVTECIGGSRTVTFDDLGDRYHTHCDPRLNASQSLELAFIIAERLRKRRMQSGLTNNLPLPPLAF

For the compound “BdDHS1a: DHS1a enzyme of Brachypodium distachyon, SEQ ID NO: 1”, in [1], the “phenylalanine accumulation compared to tdTomato control” value is given as “did not significantly alter”, the “shikimate accumulation compared to tdTomato control” value was “did not significantly alter”, the “tryptophan accumulation compared to tdTomato control” value is “did not significantly alter” and the “tyrosine accumulation compared to tdTomato control” value is “did not significantly alter”. In assay [2], the “impact of effector combinations on DHS activity” value is on record as “additional inhibition”.

For `N[C@@H](Cc1ccccc1)C(=O)O` [phenylalanine], the “effect on grass DHS at 0.5 mM” value in the assay with grass DHS enzymes is reported as “did not cause significant effects”. In addition, in assay [3], the “inhibition at 0.5 mM” value was “no strong inhibition”.

Regarding `O=C[C@H](O)[C@H](O)COP(=O)(O)O` [E4P, erythrose 4-phosphate], the figures for the “H Coefficient (only E4P)” value in [4] (1.5 mM PEP), in [5] (1.5 mM PEP) and in assay [6] (1.5 mM PEP) were 1.5, 2.1 and 1.8, respectively. The “kcat/EC50 (E4P)” value in assay [5] came to 28300 M⁻¹ s⁻¹. Further, in [5] (1.5 mM PEP, 37° C., read-out: EC50 (E4P) (K0.5)), the Km is 400 µM.

Regarding `O=C(O)Cc1cc(O)ccc1O` [homogentisic acid], the “effect on grass DHS at 0.5 mM” value with grass DHS enzymes is recorded as “little effect”.

Take `C=C(O[C@@H]1C=C(C(=O)O)C=C[C@H]1O)C(=O)O` [chorismate]: the “effect on grass DHS at 0.5 mM” value with grass DHS enzymes is on record as “little effect”.

For the compound “OsDHS1b: DHS1b enzyme of Oryza sativa, SEQ ID NO: 19”, in assay [7], the “prephenate and arogenate relative to the control” value was approximately 100 times; the “effect on levels of aromatic amino acids and their precursor molecules” value is reported as “increased levels of all measured metabolites except for tryptophan”.

As to “SbDHS1b: DHS1b enzyme of Sorghum bicolor, SEQ ID NO: 11”, in assay [7], the “effect on levels of aromatic amino acids and their precursor molecules” value was “little or no significant effect”.

For “BdDHS2: DHS2 enzyme of Brachypodium distachyon, SEQ ID NO: 5”, in assay [8], the “inhibition mechanism of arogenate for PEP” value was “mixed inhibition” and the “inhibition mechanism of arogenate in respect to E4P” value was “uncompetitive inhibition”. In assay [1], the “phenylalanine accumulation compared to tdTomato control” value is listed as “did not significantly alter”, the “shikimate accumulation compared to tdTomato control” value is on record as “did not significantly alter”, the “tryptophan accumulation compared to tdTomato control” value is reported as “did not significantly alter” and the “tyrosine accumulation compared to tdTomato control” value is on record as “did not significantly alter”. In addition, the “impact of effector combinations on DHS activity” value in assay [2] is given as “additional inhibition”. Besides, the “inhibition mechanism of tryptophan in respect to E4P” value in assay [9] is on record as “uncompetitive inhibition”.

For the compound `N[C@@H](Cc1c[nH]c2ccccc12)C(=O)O` [tryptophan], the inhibition at 500 µM in [10] and in [11] was 40 to 50% in each case. Further, the IC50 was 120 µM in assay [4] (1.5 mM PEP, 2 mM E4P, read-out: IC50 (tryptophan)); more than 500 µM in assay [5] (read-out: IC50 (tryptophan)); more than 500 µM in [6] (IC50 (tryptophan), 1.5 mM PEP, 2 mM E4P). Besides, the “mode of inhibition with respect to E4P” value in assay [4] (FIG. 18) is “uncompetitive inhibition kinetics”. For the same compound, the “mode of inhibition with respect to PEP” value in assay [4] (FIG. 18) is “non-competitive inhibition”. The effect of tryptophan result in assay [5] (0.5 mM (FIG. 4C)) and in [6] (0.5 mM (FIG. 4C)) was “no effect” in each case.

In the case of `O=C(O)/C=C/c1ccc(O)c(O)c1` [caffeic acid], the “effect on grass DHS at 0.5 mM” value in the assay on grass DHS enzymes is “little effect”.

For the origin of these results see US20250115926A1, “DEREGULATED DHS AND TYRA ENZYMES OF GRASSES ENABLE EFFICIENT PRODUCTION OF BOTH TYROSINE AND PHENYLALANINE” (Wisconsin Alumni Research Foundation, priority 2023, published 2025).
